From ChEMBL document CHEMBL2331298, “Flavonoids as receptor tyrosine kinase FLT3 inhibitors” (Bioorg Med Chem Lett, 2013)
pIC50: −log10 of the molar value.

Experiments:
[1] = target: T1, Receptor-type tyrosine-protein kinase FLT3 (Homo sapiens, UniProt P36888); assay: Inhibition of recombinant FLT3 (unknown origin) by TR-FRET assay
T1 sequence (P36888 whole entry): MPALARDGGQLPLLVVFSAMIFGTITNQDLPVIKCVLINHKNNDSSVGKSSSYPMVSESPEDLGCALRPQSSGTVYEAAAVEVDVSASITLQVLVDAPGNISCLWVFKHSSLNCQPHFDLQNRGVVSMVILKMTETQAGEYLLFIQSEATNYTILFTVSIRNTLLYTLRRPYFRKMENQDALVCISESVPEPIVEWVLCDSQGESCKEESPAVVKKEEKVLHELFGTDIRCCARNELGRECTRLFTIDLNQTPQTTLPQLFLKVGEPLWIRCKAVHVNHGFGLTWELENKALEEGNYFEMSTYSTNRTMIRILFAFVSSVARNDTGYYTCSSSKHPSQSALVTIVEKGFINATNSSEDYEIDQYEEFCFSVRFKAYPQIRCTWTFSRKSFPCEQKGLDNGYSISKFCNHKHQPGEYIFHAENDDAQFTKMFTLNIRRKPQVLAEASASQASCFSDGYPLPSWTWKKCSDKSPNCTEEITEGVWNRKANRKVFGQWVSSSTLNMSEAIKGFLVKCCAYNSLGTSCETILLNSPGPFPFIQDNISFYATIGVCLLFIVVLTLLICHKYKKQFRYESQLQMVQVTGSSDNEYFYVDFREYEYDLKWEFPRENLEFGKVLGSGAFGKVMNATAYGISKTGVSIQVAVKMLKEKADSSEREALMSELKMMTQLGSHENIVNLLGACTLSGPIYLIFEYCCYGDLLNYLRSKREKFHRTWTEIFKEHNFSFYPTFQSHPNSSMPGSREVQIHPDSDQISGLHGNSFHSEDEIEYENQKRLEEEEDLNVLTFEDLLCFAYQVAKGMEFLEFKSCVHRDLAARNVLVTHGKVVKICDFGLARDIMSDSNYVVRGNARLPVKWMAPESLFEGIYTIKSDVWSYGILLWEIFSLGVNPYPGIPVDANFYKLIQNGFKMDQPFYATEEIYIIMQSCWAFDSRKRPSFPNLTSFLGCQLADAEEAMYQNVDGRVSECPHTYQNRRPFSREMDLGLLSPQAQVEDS

[2] = Cytotoxicity against human RS4:11 cells harboring wild type FLT3 after 72 hrs by tetrazolium based Ez CyTox cell viability assay; format: functional; conditions: RS4-11, 72 h
MV4-11 [3] = assay: Cytotoxicity against human MV4-11 cells harboring FLT3 mutation after 72 hrs by tetrazolium based Ez CyTox cell viability assay; format: functional; conditions: MV4-11, 72 h
MV4-11 [4] = assay: Cell cycle arrest in human MV4-11 cells harboring FLT3 mutation assessed as accumulation at sub-G1 phase at 1 uM after 48 hrs using propidium iodide staining by flow cytometry (reference value: 3.86%); format: functional
MV4-11 [5] = assay: Cell cycle arrest in human MV4-11 cells harboring FLT3 mutation assessed as accumulation at S phase at 10 uM after 48 hrs using propidium iodide staining by flow cytometry (reference value: 15.48%); format: functional
MV4-11 [6] = assay: Cell cycle arrest in human MV4-11 cells harboring FLT3 mutation assessed as accumulation at G2/M phase at 0.1 uM after 48 hrs using propidium iodide staining by flow cytometry (reference value: 11.61%); format: functional
MV4-11 [7] = assay: Cell cycle arrest in human MV4-11 cells harboring FLT3 mutation assessed as accumulation at G1 phase at 1 uM after 48 hrs using propidium iodide staining by flow cytometry (reference value: 69.69%); format: functional
MV4-11 [8] = assay: Cell cycle arrest in human MV4-11 cells harboring FLT3 mutation assessed as accumulation at sub-G1 phase at 0.1 uM after 48 hrs using propidium iodide staining by flow cytometry (reference value: 3.86%); format: functional
MV4-11 [9] = assay: Cell cycle arrest in human MV4-11 cells harboring FLT3 mutation assessed as accumulation at G1 phase at 10 uM after 48 hrs using propidium iodide staining by flow cytometry (reference value: 69.69%); format: functional
MV4-11 [10] = assay: Cell cycle arrest in human MV4-11 cells harboring FLT3 mutation assessed as accumulation at G2/M phase at 10 uM after 48 hrs using propidium iodide staining by flow cytometry (reference value: 11.61%); format: functional
MV4-11 [11] = assay: Cell cycle arrest in human MV4-11 cells harboring FLT3 mutation assessed as accumulation at S phase at 0.1 uM after 48 hrs using propidium iodide staining by flow cytometry (reference value: 15.48%); format: functional
MV4-11 [12] = assay: Cell cycle arrest in human MV4-11 cells harboring FLT3 mutation assessed as accumulation at sub-G1 phase at 10 uM after 48 hrs using propidium iodide staining by flow cytometry (reference value: 3.86%); format: functional
MV4-11 [13] = assay: Cell cycle arrest in human MV4-11 cells harboring FLT3 mutation assessed as accumulation at G1 phase at 0.1 uM after 48 hrs using propidium iodide staining by flow cytometry (reference value: 69.69%); format: functional
MV4-11 [14] = assay: Cell cycle arrest in human MV4-11 cells harboring FLT3 mutation assessed as accumulation at S phase at 1 uM after 48 hrs using propidium iodide staining by flow cytometry (reference value: 15.48%); format: functional
MV4-11 [15] = assay: Cell cycle arrest in human MV4-11 cells harboring FLT3 mutation assessed as accumulation at G2/M phase at 1 uM after 48 hrs using propidium iodide staining by flow cytometry (reference value: 11.61%); format: functional

| SMILES | pIC50 [1] | GI50 [2] [µM] | GI50 (MV4-11 [3]) [µM] | further results |
| --- | --- | --- | --- | --- |
| O=c1cc(-c2ccccc2)oc2cc(O)c(O)c(O)c12 [BAICALEIN] | < 5.00 | – | – | – |
| O=c1c(O)c(-c2ccccc2)oc2cc(O)cc(O)c12 [GALANGIN] | < 5.00 | – | – | – |
| O=c1c(OC2O[C@H](CO)[C@H](O)[C@H](O)[C@H]2O)c(-c2ccc(O)c(O)c2)oc2cc(O)cc(O)c12 (stereo not given in full) | < 5.00 | – | – | – |
| O=C1C[C@@H](c2ccc(O)cc2)Oc2cc(O)cc(O)c21 [NARINGENIN] | < 5.00 | – | – | – |
| COc1c(O)cc2oc(-c3ccccc3)cc(=O)c2c1O [OROXYLIN A] | 5.83 | 40 | 5.59 | – |
| O=c1cc(-c2ccccc2)oc2cc(O)cc(O)c12 [CHRYSIN] | < 5.00 | – | – | – |
| O=c1cc(-c2ccc(O)c(O)c2)oc2cc(O)cc(O)c12 [LUTEOLIN] | 6.08 | 7.25 | 1.76 | Activity (MV4-11 [4]): 16.42%; Activity (MV4-11 [5]): 2.09%; Activity (MV4-11 [6]): 4.9%; Activity (MV4-11 [7]): 67.08%; Activity (MV4-11 [8]): 13.71%; Activity (MV4-11 [9]): 66.68%; Activity (MV4-11 [10]): 0.51%; Activity (MV4-11 [11]): 10.5%; Activity (MV4-11 [12]): 30.76%; Activity (MV4-11 [13]): 71.25%; Activity (MV4-11 [14]): 12.8%; Activity (MV4-11 [15]): 4.2% |
| O=c1c(O)c(-c2ccc(O)c(O)c2)oc2cc(O)cc(O)c12 [QUERCETIN] | 6.23 | 21.6 | 13.1 | – |
| O=C1c2c(O)cc(O)cc2O[C@H](c2ccc(O)cc2)[C@H]1O [DIHYDROKAEMPFEROL] | < 5.00 | – | – | – |
| O=c1c(OC2O[C@H](CO)[C@@H](O)[C@H](O)[C@@H]2O)c(-c2ccc(O)c(O)c2)oc2cc(O)cc(O)c12 (stereo not given in full) | < 5.00 | – | – | – |
| O=c1cc(-c2ccc(O)cc2)oc2cc(O)cc(O)c12 [APIGENIN] | 5.84 | 27.9 | 2.81 | – |
| O=c1c(O[C@@H]2O[C@H](CO)[C@@H](O)[C@H](O)[C@H]2O)c(-c2ccc(O)c(O)c2)oc2cc(O)cc(O)c12 [ISOQUERCETIN] | < 5.00 | – | – | – |
| O=c1c(O)c(-c2cc(O)c(O)c(O)c2)oc2cc(O)cc(O)c12 [MYRICETIN] | 5.77 | > 50 | > 50 | – |
| O=c1cc(-c2ccc(O)cc2)oc2cc(O)c(O)c(O)c12 [SCUTELLAREIN] | < 5.00 | – | – | – |
| O=C1C[C@@H](c2ccc(O)c(O)c2)Oc2cc(O)cc(O)c21 [ERIODICTYOL] | < 5.00 | – | – | – |
| O=c1c(O)c(-c2ccc(O)cc2)oc2cc(O)cc(O)c12 [KAEMPFEROL] | 5.63 | > 50 | 3.34 | – |
